Molecules are shown by their SMILES. Marks after values point to notes of the source that are not given here.

Results on 8 molecules are retold here after patent US20110045101A1, “FUNGICIDAL SUBSTITUTED AZOLES” (E.I. Du Pont De Nemours and Company, priority 2009, published 2011).

What all share (format): in vivo
What all share (conditions): 100 = 100% disease control

In assay [1] the test system is Puccinia recondita f. sp. tritici. As to the kind of experiment: Test I: wheat leaf rust on wheat seedlings, sprayed the day before inoculation, visual disease rating. The gist of the method: (§1)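 Compounds were dissolved in acetone (3% of final volume), then suspended in 50/50 acetone/water with 250 ppm Trem 014 surfactant and sprayed to run-off on test plants. A 200 ppm suspension equals 500 g/ha. Ratings are at 200 ppm unless flagged as 40 ppm.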

In a further assay the test system is Septoria nodorum. As to the kind of experiment: Test F: wheat glume blotch on wheat seedlings, sprayed the day before inoculation, visual disease rating. The gist of the method: as §1
Assay [2] has as its system Erysiphe graminis f. sp. tritici. As to the kind of experiment: Test J: wheat powdery mildew on wheat seedlings, sprayed the day before inoculation, visual disease rating. The gist of the method:
as §1

For a further assay, the system named is Botrytis cinerea. As to the kind of experiment: Test C: tomato Botrytis on tomato seedlings, sprayed the day before inoculation, visual disease rating. A digest of the protocol:
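Tomato seedlings sprayed to run-off with compound suspended in acetone/water with 250 ppm Trem 014 surfactant, at 200 ppm (≈500 g/ha) or 40 ppm where marked, one day before Botrytis cinerea inoculation. Disease rated visually.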

The test system of the next assay is Alternaria solani. As to the kind of experiment: Test D: tomato early blight, sprayed the day before inoculation, visual disease rating. The gist of the method: as §1
The test system of assay [3] is Puccinia recondita f. sp. tritici. As to the kind of experiment: Test H: wheat leaf rust, test suspension sprayed after inoculation of wheat seedlings, visual disease rating. A digest of the protocol: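 Wheat seedlings inoculated with P. recondita spores, held 24 h saturated at 20 °C, then 2 days in growth chamber at 20 °C; compound suspension (acetone/water with Trem 014) sprayed to run-off afterwards. Rated visually; 200 ppm (≈500 g/ha) unless marked *, which denotes 40 ppm.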

For another assay, the system named is Septoria tritici. As to the kind of experiment: Test G: wheat leaf blotch on wheat seedlings, sprayed the day before inoculation, visual disease rating. The gist of the method: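 Spray to run-off, 200 ppm (≈500 g/ha; starred = 40 ppm), acetone/water 50/50 + 250 ppm Trem® 014. Spore inoculation +1 d. 24° C saturated 48 h → 20° C 19 d. Visual rating.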
[4] abbreviates: 200 ppm, 0 = no control relative to controls.

Consider `COc1ccc(F)c(-c2c(C)nc(C)n2-c2ccc(F)cc2)c1F` [Compound 549, 5-(2,6-difluoro-3-methoxyphenyl)-1-(4-fluorophenyl)-2,4-dimethyl-1H-imidazole], for which the pest or weed control at 200 ppm worked out at 100% in assay [1] (Puccinia recondita, 168 h, 200 ppm, 0 = no control relative to controls); 99% in the assay on Septoria nodorum (Parastagonospora nodorum, 264 h, 200 ppm, 0 = no control relative to controls); 100% in assay [2] (Blumeria graminis, 168 h, 200 ppm, 0 = no control relative to controls); 100% in the assay on Botrytis cinerea (Botrytis cinerea, 120 h, 200 ppm, 0 = no control relative to controls); 100% in the assay on Alternaria solani (Alternaria solani, 168 h, 200 ppm, 0 = no control relative to controls); 0% in assay [3] (Puccinia recondita, 96 h, 200 ppm, 0 = no control relative to controls). Moreover, the pest or weed control at 200 ppm with Septoria tritici (Zymoseptoria tritici, 504 h, 200 ppm, 0 = no control relative to controls) worked out at 98%.

For `N#Cc1ccc(F)c(-c2c(Cl)nc(Cl)n2-c2ccc(F)cc2)c1F` [compound 679], in assay [1] (setting [4]), the “Test I disease control rating” value was 100%. For the same molecule, the “Test F disease control rating” value in the assay on Septoria nodorum (setting [4]) was 99%. Moreover, the “Test J disease control rating” value in assay [2] (setting [4]) is 100%. For the same molecule, in the assay on Botrytis cinerea (setting [4]), the “Test C disease control rating” value is 100%. Besides, in the assay with Alternaria solani (setting [4]), the “Test D disease control rating” value is recorded as 100%. For the same molecule, the “Test H disease control rating” value in assay [3] (setting [4]) is recorded as 18%. The “Test G disease control rating” value in the assay on Septoria tritici (setting [4]) was 99%.

`Cc1nc(Cl)c(Cc2c(F)cc(F)cc2F)n1-c1cc(Cl)cc(Cl)c1` [compound 540]: the “Test I disease control rating” value in assay [1] (setting [4]) turned out to be 0%. Further, the “Test F disease control rating” value in the assay on Septoria nodorum (setting [4]) turned out to be 0%. The “Test J disease control rating” value in assay [2] (setting [4]) is recorded as 21%. The “Test C disease control rating” value in the assay on Botrytis cinerea (setting [4]) is 15%. Further, in the assay on Alternaria solani (setting [4]), the “Test D disease control rating” value stood at 0%. For the same molecule, the “Test H disease control rating” value in assay [3] (setting [4]) stood at 0%. Further, in the assay with Septoria tritici (setting [4]), the “Test G disease control rating” value is listed as 3%.

Consider `COc1ccc(F)c(-c2c(Br)nc(Cl)n2-c2ccc(Cl)cc2)c1F` [compound 510], for which the “Test I disease control rating” value in assay [1] (setting [4]) amounted to 98%. Further, the “Test F disease control rating” value with Septoria nodorum (setting [4]) stood at 100%. Further, the “Test J disease control rating” value in assay [2] (setting [4]) is listed as 100%. In addition, the “Test C disease control rating” value with Botrytis cinerea (setting [4]) was 99%. Also, the “Test D disease control rating” value in the assay with Alternaria solani (setting [4]) is 100%. Moreover, the “Test H disease control rating” value in assay [3] (setting [4]) was 9%. In the assay on Septoria tritici (setting [4]), the “Test G disease control rating” value was found to be 99%.

Consider `CCOc1ccc(F)c(-c2c(Cl)ncn2-c2ccc(Cl)cc2)c1F` [compound 660], for which, in assay [1] (setting [4]), the “Test I disease control rating” value is reported as 92%. Moreover, the “Test F disease control rating” value in the assay with Septoria nodorum (setting [4]) is on record as 82%. In addition, the “Test J disease control rating” value in assay [2] (setting [4]) is on record as 100%. Further, the “Test C disease control rating” value with Botrytis cinerea (setting [4]) worked out at 100%. For the same molecule, the “Test D disease control rating” value in the assay with Alternaria solani (setting [4]) is reported as 98%. Further, the “Test H disease control rating” value in assay [3] (setting [4]) stood at 9%. In addition, the “Test G disease control rating” value in the assay with Septoria tritici (setting [4]) amounted to 100%.

As for `Fc1cc(-n2c(Cl)nc(Br)c2-c2c(F)ccc(F)c2Cl)ccc1Cl` [compound 463], the “Test I disease control rating” value in assay [1] (40 ppm (marked *)) was 100* %. Further, the “Test F disease control rating” value with Septoria nodorum (40 ppm (marked *)) is 0* %. Moreover, the “Test J disease control rating” value in assay [2] (40 ppm (marked *)) is reported as 99* %. The “Test C disease control rating” value in the assay on Botrytis cinerea (40 ppm (marked *)) is reported as 99* %. The “Test D disease control rating” value with Alternaria solani (40 ppm (marked *)) is given as 99* %. Besides, the “Test H disease control rating” value in assay [3] (40 ppm (marked *)) is 0* %. For the same molecule, the “Test G disease control rating” value in the assay with Septoria tritici (40 ppm (marked *)) is recorded as 95* %.

In the case of `COc1cc(F)c(-c2c(Cl)nc(Cl)n2-c2ccc(C)cc2F)c(F)c1` [compound 653], the “Test I disease control rating” value in assay [1] (40 ppm (marked *)) was 100* %. Moreover, the “Test F disease control rating” value in the assay on Septoria nodorum (40 ppm (marked *)) is recorded as 78* %. Moreover, the “Test J disease control rating” value in assay [2] (40 ppm (marked *)) is 99* %. Further, in the assay on Botrytis cinerea (40 ppm (marked *)), the “Test C disease control rating” value is reported as 99* %. Also, the “Test D disease control rating” value in the assay with Alternaria solani (40 ppm (marked *)) is given as 99* %. Also, the “Test H disease control rating” value in assay [3] (40 ppm (marked *)) is on record as 99* %. Besides, in the assay with Septoria tritici (40 ppm (marked *)), the “Test G disease control rating” value is on record as 100* %.

As to `COc1cc(F)c(-c2c(Cl)ncn2-c2cccc(OC(F)(F)F)c2)c(F)c1` [compound 558], in assay [1] (setting [4]), the “Test I disease control rating” value came to 99%. For the same molecule, the “Test F disease control rating” value with Septoria nodorum (setting [4]) came to 0%. For the same molecule, the “Test J disease control rating” value in assay [2] (setting [4]) came to 100%. The “Test C disease control rating” value in the assay with Botrytis cinerea (setting [4]) is on record as 100%. Moreover, the “Test D disease control rating” value with Alternaria solani (setting [4]) is 0%. Further, the “Test H disease control rating” value in assay [3] (setting [4]) came out at 15%. For the same molecule, the “Test G disease control rating” value in the assay with Septoria tritici (setting [4]) is given as 94%.
